Measured values reported in patent US8252524B2, “Method of screening pharmaceutical compositions that promote nuclear transfer of Cdc42 protein” (Kowa Company, Ltd., priority 2004, dated 2012).

How the values were obtained:
Cdc42 protein = assay: Nuclear transfer of GFP/Cdc42 fusion protein in transformed HUVEC observed by fluorescence microscopy; assay type: cell-based; details: HUVEC expressing GFP/Cdc42 fusion protein; 1 μM final concentration; 15 hours culture; nuclei confirmed by Hoechst staining
Procedure: The present inventors measured the behavior of Cdc42 protein in HUVEC with an HMG-CoA reductase inhibitor, particularly pitavastatin. For this measurement, a gene encoding a Cdc42/fluorescence protein GFP fusion protein was introduced into HUVEC to prepare a transformed cell expressing a GFP/Cdc42 fusion protein. This transformed cell was cultured, and the state of Cdc42 distributed in the cell in the presence or absence of pitavastatin was examined by observing the fluorescence of GFP. A gene encoding the whole area of a Cdc42 translation region was introduced into a predetermined position of a commercial plasmid pEGFP-C1 for preparation of a fusion protein consisting of GFP and a desired protein, to construct a plasmid comprising the GFP-Cdc42 gene. After […] were put to a 6-well plate and then cultured overnight in EGM-2 medium. Using Fugene 6, the plasmid construct DNA prepared above was added in an amount of 0.8 μg/well to the cells. The cells were further cultured for 21 hours in EGM-2 medium, and then the fluorescence of GFP was observed under a fluorescence microscope. […] And then the cells were subjected to stationary culture for 15 hours, fixed onto a prepared slide and observed under a fluorescence microscope. […]

[1] = system: vascular endothelial cells; details: cited from earlier work

O=C(O)C[C@H](O)C[C@H](O)/C=C/c1c(C2CC2)nc2ccccc2c1-c1ccc(F)cc1 [pitavastatin, (3R,5S,6E)-7-[2-cylopropyl-4-(4-fluorophenyl)-3-quinolyl]-3,5-dihydroxy-6-heptenoic acid]
Distribution of GFP-Cdc42 in the cell (transfer into the nucleus) (Cdc42 protein): GFP-Cdc42 is transferred to a nucleus | Expression of NO synthase and thrombomodulin [1]: promotes expression of NO synthase | Expression of PTX3 [1]: suppresses expression of PTX3 | Expression of inflammatory cytokine IL-8 or MCP-1, endothelin and PAI-1 [1]: suppresses expression of inflammatory cytokine IL-8 or MCP-1, expression of endothelin and expression of PAI-1
